Values quoted from earlier work in patent publication US8481600B2, “Formulation of aspirin that is stable and showing minimal hydrolysis for parenteral administration for the treatment of cardiovascular and other disease states” (Academic Pharmaceuticals, Inc., priority 2007, dated 2013).

Legend:
[1] = cited from earlier work
[2] = cited from earlier work; remark: listed apart in the source
[3] = cited from earlier work; remark: listed apart in the source

Structure (SMILES): CC(=O)Oc1ccccc1C(=O)O [Lysine acetylsalicylate]
- treatment of acute migraine headaches ([1]; human, in vivo): effective
- incidence of sensitivity that can lead to anaphylactic shock ([1]; patients): up to 5%
- water solubility [2]: readily water soluble
- shortest half life after IV administration ([3]; IV): 7.5 min
- metabolism and hydrolysis to salicylic acid ([3]; in vivo): rapid
